In patent US9006188B2, “Co-crystals of dapagliflozin” (Mapi Pharma Ltd., priority 2013, dated 2015):

Test: Hygroscopicity by Dynamic Vapor Sorption (DVS), sorption/desorption profile
Type: physicochemical
Settings: for weight gain from 0 to 95% RH / Change In Mass (%) - ref, Desorption / Change In Mass (%) - ref, Sorption / Change In Mass (%) - ref, Hysteresis: DVS 25° C.; for hygroscopicity classification: based on DVS weight gain from 0 to 95% RH
Procedure: The preparation of lactose co-crystal and asparagine co-crystal were scaled up and repeated (about 400 mg of dapagliflozin free form was dissolved in 26 ml of IPA) and XRPD, PLM, TGA, DSC, NMR and DVS analyses were conducted for physicochemical properties evaluation. Before physicochemical properties evaluation, the solids precipitated out were isolated and dried off at 40° C. for 4 hours in vacuum drier. After hygroscopicity test, the sample was retested by XRPD to determine if any form transformation during the DVS test.
The sorption/desorption profiles of dapagliflozin Form I were tested at 25° C. under 0-95% relative humidity. […] This sample was tested by XRPD.

With `CCOc1ccc(Cc2cc(C3OC(CO)C(O)C(O)C3O)ccc2Cl)cc1.NC(=O)CC(N)C(=O)O` (stereo not drawn) [Asparagine co-crystal] the “weight gain from 0 to 95% RH” value was 1.80%, the “Change In Mass (%) - ref, Desorption” value (cycle 1, target 0.0 % P/Po) was 0.159% and the “Change In Mass (%) - ref, Sorption” value (cycle 1, target 0.0 % P/Po) was 0.002%. The “Change In Mass (%) - ref, Desorption” value (cycle 1, target 5.0 % P/Po) was 0.302%, the “Change In Mass (%) - ref, Hysteresis” value (cycle 1, target 5.0 % P/Po) was 0.071% and the “Change In Mass (%) - ref, Sorption” value (cycle 1, target 5.0 % P/Po) was 0.231%. For the same compound, the “Change In Mass (%) - ref, Desorption” value (cycle 1, target 10.0 % P/Po) was 0.341%, the “Change In Mass (%) - ref, Hysteresis” value (cycle 1, target 10.0 % P/Po) was 0.071% and the “Change In Mass (%) - ref, Sorption” value (cycle 1, target 10.0 % P/Po) was 0.270%. The “Change In Mass (%) - ref, Desorption” value (cycle 1, target 15.0 % P/Po) was 0.364%, the “Change In Mass (%) - ref, Hysteresis” value (cycle 1, target 15.0 % P/Po) was 0.060% and the “Change In Mass (%) - ref, Sorption” value (cycle 1, target 15.0 % P/Po) was 0.304%. For the same compound, the “Change In Mass (%) - ref, Desorption” value (cycle 1, target 20.0 % P/Po) was 0.371%, the “Change In Mass (%) - ref, Hysteresis” value (cycle 1, target 20.0 % P/Po) was 0.035% and the “Change In Mass (%) - ref, Sorption” value (cycle 1, target 20.0 % P/Po) was 0.336%. The “Change In Mass (%) - ref, Desorption” value (cycle 1, target 25.0 % P/Po) was 0.392%, the “Change In Mass (%) - ref, Hysteresis” value (cycle 1, target 25.0 % P/Po) was 0.022% and the “Change In Mass (%) - ref, Sorption” value (cycle 1, target 25.0 % P/Po) was 0.370%. For the same compound, the “Change In Mass (%) - ref, Desorption” value (cycle 1, target 30.0 % P/Po) was 0.412%, the “Change In Mass (%) - ref, Hysteresis” value (cycle 1, target 30.0 % P/Po) was 0.009% and the “Change In Mass (%) - ref, Sorption” value (cycle 1, target 30.0 % P/Po) was 0.404%. For the same compound, the “Change In Mass (%) - ref, Desorption” value (cycle 1, target 35.0 % P/Po) was 0.440%, the “Change In Mass (%) - ref, Hysteresis” value (cycle 1, target 35.0 % P/Po) was −0.006% and the “Change In Mass (%) - ref, Sorption” value (cycle 1, target 35.0 % P/Po) was 0.446%. For the same compound, the “Change In Mass (%) - ref, Desorption” value (cycle 1, target 40.0 % P/Po) was 0.474%, the “Change In Mass (%) - ref, Hysteresis” value (cycle 1, target 40.0 % P/Po) was −0.020% and the “Change In Mass (%) - ref, Sorption” value (cycle 1, target 40.0 % P/Po) was 0.493%. For the same compound, the “Change In Mass (%) - ref, Desorption” value (cycle 1, target 45.0 % P/Po) was 0.517%, the “Change In Mass (%) - ref, Hysteresis” value (cycle 1, target 45.0 % P/Po) was −0.026% and the “Change In Mass (%) - ref, Sorption” value (cycle 1, target 45.0 % P/Po) was 0.542%. The “Change In Mass (%) - ref, Desorption” value (cycle 1, target 50.0 % P/Po) was 0.565%, the “Change In Mass (%) - ref, Hysteresis” value (cycle 1, target 50.0 % P/Po) was −0.042% and the “Change In Mass (%) - ref, Sorption” value (cycle 1, target 50.0 % P/Po) was 0.607%. The “Change In Mass (%) - ref, Desorption” value (cycle 1, target 55.0 % P/Po) was 0.600%, the “Change In Mass (%) - ref, Hysteresis” value (cycle 1, target 55.0 % P/Po) was −0.073% and the “Change In Mass (%) - ref, Sorption” value (cycle 1, target 55.0 % P/Po) was 0.673%. For the same compound, the “Change In Mass (%) - ref, Desorption” value (cycle 1, target 60.0 % P/Po) was 0.650%, the “Change In Mass (%) - ref, Hysteresis” value (cycle 1, target 60.0 % P/Po) was −0.086% and the “Change In Mass (%) - ref, Sorption” value (cycle 1, target 60.0 % P/Po) was 0.736%. The “Change In Mass (%) - ref, Desorption” value (cycle 1, target 65.0 % P/Po) was 0.729%, the “Change In Mass (%) - ref, Hysteresis” value (cycle 1, target 65.0 % P/Po) was −0.057% and the “Change In Mass (%) - ref, Sorption” value (cycle 1, target 65.0 % P/Po) was 0.786%. For the same compound, the “Change In Mass (%) - ref, Desorption” value (cycle 1, target 70.0 % P/Po) was 0.794%, the “Change In Mass (%) - ref, Hysteresis” value (cycle 1, target 70.0 % P/Po) was −0.075% and the “Change In Mass (%) - ref, Sorption” value (cycle 1, target 70.0 % P/Po) was 0.869%. For the same compound, the “Change In Mass (%) - ref, Desorption” value (cycle 1, target 75.0 % P/Po) was 0.878%, the “Change In Mass (%) - ref, Hysteresis” value (cycle 1, target 75.0 % P/Po) was −0.078% and the “Change In Mass (%) - ref, Sorption” value (cycle 1, target 75.0 % P/Po) was 0.956%. For the same compound, the “Change In Mass (%) - ref, Desorption” value (cycle 1, target 80.0 % P/Po) was 1.031%, the “Change In Mass (%) - ref, Hysteresis” value (cycle 1, target 80.0 % P/Po) was −0.041% and the “Change In Mass (%) - ref, Sorption” value (cycle 1, target 80.0 % P/Po) was 1.072%. For the same compound, the “Change In Mass (%) - ref, Desorption” value (cycle 1, target 85.0 % P/Po) was 1.171%, the “Change In Mass (%) - ref, Hysteresis” value (cycle 1, target 85.0 % P/Po) was −0.030% and the “Change In Mass (%) - ref, Sorption” value (cycle 1, target 85.0 % P/Po) was 1.201%. The “Change In Mass (%) - ref, Desorption” value (cycle 1, target 90.0 % P/Po) was 1.378%, the “Change In Mass (%) - ref, Hysteresis” value (cycle 1, target 90.0 % P/Po) was −0.019% and the “Change In Mass (%) - ref, Sorption” value (cycle 1, target 90.0 % P/Po) was 1.397%. For the same compound, the “Change In Mass (%) - ref, Desorption” value (cycle 1, target 95.0 % P/Po) was 1.798%, the “Change In Mass (%) - ref, Sorption” value (cycle 1, target 95.0 % P/Po) was 1.798% and the hygroscopicity classification was “slightly hygroscopic”.
With `CCOc1ccc(Cc2cc(C3OC(CO)C(O)C(O)C3O)ccc2Cl)cc1.OCC1OC(OC2C(CO)OC(O)C(O)C2O)C(O)C(O)C1O` (stereo not drawn) [lactose co-crystal] the “weight gain from 0 to 95% RH” value was 2.16%, the “Change In Mass (%) - ref, Desorption” value (cycle 1, target 0.0 % P/Po) was 0.077% and the “Change In Mass (%) - ref, Sorption” value (cycle 1, target 0.0 % P/Po) was 0.000%. For the same compound, the “Change In Mass (%) - ref, Desorption” value (cycle 1, target 5.0 % P/Po) was 0.104%, the “Change In Mass (%) - ref, Hysteresis” value (cycle 1, target 5.0 % P/Po) was 0.083% and the “Change In Mass (%) - ref, Sorption” value (cycle 1, target 5.0 % P/Po) was 0.021%. For the same compound, the “Change In Mass (%) - ref, Desorption” value (cycle 1, target 10.0 % P/Po) was 0.120%, the “Change In Mass (%) - ref, Hysteresis” value (cycle 1, target 10.0 % P/Po) was 0.078% and the “Change In Mass (%) - ref, Sorption” value (cycle 1, target 10.0 % P/Po) was 0.042%. For the same compound, the “Change In Mass (%) - ref, Desorption” value (cycle 1, target 15.0 % P/Po) was 0.136%, the “Change In Mass (%) - ref, Hysteresis” value (cycle 1, target 15.0 % P/Po) was 0.073% and the “Change In Mass (%) - ref, Sorption” value (cycle 1, target 15.0 % P/Po) was 0.064%. The “Change In Mass (%) - ref, Desorption” value (cycle 1, target 20.0 % P/Po) was 0.151%, the “Change In Mass (%) - ref, Hysteresis” value (cycle 1, target 20.0 % P/Po) was 0.066% and the “Change In Mass (%) - ref, Sorption” value (cycle 1, target 20.0 % P/Po) was 0.085%. For the same compound, the “Change In Mass (%) - ref, Desorption” value (cycle 1, target 25.0 % P/Po) was 0.170%, the “Change In Mass (%) - ref, Hysteresis” value (cycle 1, target 25.0 % P/Po) was 0.063% and the “Change In Mass (%) - ref, Sorption” value (cycle 1, target 25.0 % P/Po) was 0.107%. The “Change In Mass (%) - ref, Desorption” value (cycle 1, target 30.0 % P/Po) was 0.188%, the “Change In Mass (%) - ref, Hysteresis” value (cycle 1, target 30.0 % P/Po) was 0.058% and the “Change In Mass (%) - ref, Sorption” value (cycle 1, target 30.0 % P/Po) was 0.131%. For the same compound, the “Change In Mass (%) - ref, Desorption” value (cycle 1, target 35.0 % P/Po) was 0.213%, the “Change In Mass (%) - ref, Hysteresis” value (cycle 1, target 35.0 % P/Po) was 0.053% and the “Change In Mass (%) - ref, Sorption” value (cycle 1, target 35.0 % P/Po) was 0.160%. The “Change In Mass (%) - ref, Desorption” value (cycle 1, target 40.0 % P/Po) was 0.238%, the “Change In Mass (%) - ref, Hysteresis” value (cycle 1, target 40.0 % P/Po) was 0.036% and the “Change In Mass (%) - ref, Sorption” value (cycle 1, target 40.0 % P/Po) was 0.201%. For the same compound, the “Change In Mass (%) - ref, Desorption” value (cycle 1, target 45.0 % P/Po) was 0.266%, the “Change In Mass (%) - ref, Hysteresis” value (cycle 1, target 45.0 % P/Po) was 0.022% and the “Change In Mass (%) - ref, Sorption” value (cycle 1, target 45.0 % P/Po) was 0.244%. For the same compound, the “Change In Mass (%) - ref, Desorption” value (cycle 1, target 50.0 % P/Po) was 0.296%, the “Change In Mass (%) - ref, Hysteresis” value (cycle 1, target 50.0 % P/Po) was 0.013% and the “Change In Mass (%) - ref, Sorption” value (cycle 1, target 50.0 % P/Po) was 0.283%. The “Change In Mass (%) - ref, Desorption” value (cycle 1, target 55.0 % P/Po) was 0.330%, the “Change In Mass (%) - ref, Hysteresis” value (cycle 1, target 55.0 % P/Po) was 0.007% and the “Change In Mass (%) - ref, Sorption” value (cycle 1, target 55.0 % P/Po) was 0.323%. For the same compound, the “Change In Mass (%) - ref, Desorption” value (cycle 1, target 60.0 % P/Po) was 0.366%, the “Change In Mass (%) - ref, Hysteresis” value (cycle 1, target 60.0 % P/Po) was 0.003% and the “Change In Mass (%) - ref, Sorption” value (cycle 1, target 60.0 % P/Po) was 0.363%. For the same compound, the “Change In Mass (%) - ref, Desorption” value (cycle 1, target 65.0 % P/Po) was 0.410%, the “Change In Mass (%) - ref, Hysteresis” value (cycle 1, target 65.0 % P/Po) was 0.000% and the “Change In Mass (%) - ref, Sorption” value (cycle 1, target 65.0 % P/Po) was 0.409%. For the same compound, the “Change In Mass (%) - ref, Desorption” value (cycle 1, target 70.0 % P/Po) was 0.465%, the “Change In Mass (%) - ref, Hysteresis” value (cycle 1, target 70.0 % P/Po) was 0.000% and the “Change In Mass (%) - ref, Sorption” value (cycle 1, target 70.0 % P/Po) was 0.466%. The “Change In Mass (%) - ref, Desorption” value (cycle 1, target 75.0 % P/Po) was 0.531%, the “Change In Mass (%) - ref, Hysteresis” value (cycle 1, target 75.0 % P/Po) was −0.004% and the “Change In Mass (%) - ref, Sorption” value (cycle 1, target 75.0 % P/Po) was 0.534%. For the same compound, the “Change In Mass (%) - ref, Desorption” value (cycle 1, target 80.0 % P/Po) was 0.618%, the “Change In Mass (%) - ref, Hysteresis” value (cycle 1, target 80.0 % P/Po) was −0.004% and the “Change In Mass (%) - ref, Sorption” value (cycle 1, target 80.0 % P/Po) was 0.622%. For the same compound, the “Change In Mass (%) - ref, Desorption” value (cycle 1, target 85.0 % P/Po) was 0.768%, the “Change In Mass (%) - ref, Hysteresis” value (cycle 1, target 85.0 % P/Po) was 0.005% and the “Change In Mass (%) - ref, Sorption” value (cycle 1, target 85.0 % P/Po) was 0.762%. For the same compound, the “Change In Mass (%) - ref, Desorption” value (cycle 1, target 90.0 % P/Po) was 1.081%, the “Change In Mass (%) - ref, Hysteresis” value (cycle 1, target 90.0 % P/Po) was 0.069% and the “Change In Mass (%) - ref, Sorption” value (cycle 1, target 90.0 % P/Po) was 1.012%. The “Change In Mass (%) - ref, Desorption” value (cycle 1, target 95.0 % P/Po) was 2.162%, the “Change In Mass (%) - ref, Sorption” value (cycle 1, target 95.0 % P/Po) was 2.162% and the hygroscopicity classification was “hygroscopic”.
